Measurements reported in PubChem BioAssay AID248 (DTP/NCI, 2004).
Toxic doses and inconclusive results are not listed. Cut-off read from the data, not from the text of the source: active = T/C of 150% or more; inactive = T/C below 125%.

System: L1210 leukemia ip in BDF1 mice, survival T/C
Assay: NCI In Vivo Anticancer Drug Screen. Data for tumor model L1210 Leukemia (intraperitoneal) in B6D2F1 (BDF1) mice
Details: endpoint: mean survival time, higher = longer survival
How it was run: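 Value reflects the ratio of survival in compound-treated mice to survival in vehicle-treated controls, with both groups carrying the same transplanted tumor.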

[1] = dose: 100.0 mg/kg/injection, schedule: Q01DX001 (ip), vehicle: saline
[2] = dose: 200.0 mg/kg/injection, schedule: Q01DX001 (ip), vehicle: saline
[3] = dose: 100.0 mg/kg/injection, schedule: Q04DX003 (ip), vehicle: Klucel (hydroxypropylcellulose) (HPC)
[4] = dose: 200.0 mg/kg/injection, schedule: Q04DX003 (ip), vehicle: Klucel (hydroxypropylcellulose) (HPC)
[5] = dose: 400.0 mg/kg/injection, schedule: Q04DX003 (ip), vehicle: Klucel (hydroxypropylcellulose) (HPC)
[6] = dose: 50.0 mg/kg/injection, schedule: Q04DX003 (ip), vehicle: Klucel (hydroxypropylcellulose) (HPC)
[7] = dose: 100.0 mg/kg/injection, schedule: Q04DX003 (ip), vehicle: saline with Tween-80
[8] = dose: 200.0 mg/kg/injection, schedule: Q04DX003 (ip), vehicle: saline with Tween-80
[9] = dose: 400.0 mg/kg/injection, schedule: Q04DX003 (ip), vehicle: saline with Tween-80

Measured: T/C

CCC1(CCCCBr)OCCO1
inactive: dose: 100.0 mg/kg/injection, schedule: Q01DX001 (ip), vehicle: Klucel (hydroxypropylcellulose) (HPC) 103 % of control | dose: 200.0 mg/kg/injection, schedule: Q01DX001 (ip), vehicle: Klucel (hydroxypropylcellulose) (HPC) 100 % of control | dose: 400.0 mg/kg/injection, schedule: Q01DX001 (ip), vehicle: Klucel (hydroxypropylcellulose) (HPC) 93 % of control

Nc1ncc(CNc2ccc(C(=O)O)cc2)c(N)n1
inactive: [1] 103 % of control | [2] 103 % of control

CCN(CC)CCSc1ncnc2nc[nH]c12
inactive: dose: 75.0 mg/kg/injection, schedule: Q01DX001 (ip), vehicle: saline 102 % of control | dose: 150.0 mg/kg/injection, schedule: Q01DX001 (ip), vehicle: saline 91 % of control | dose: 300.0 mg/kg/injection, schedule: Q01DX001 (ip), vehicle: saline 104 % of control

O=C1c2cscc2Cc2ccsc21
inactive: dose: 100.0 mg/kg/injection, schedule: Q01DX001 (ip), vehicle: saline with Tween-80 88 % of control | dose: 200.0 mg/kg/injection, schedule: Q01DX001 (ip), vehicle: saline with Tween-80 91 % of control

Oc1c(Cl)c2nc3ccccc3nc2c2ccccc12
inactive: [3] 95 % of control | [4] 97 % of control | [5] 98 % of control

CC(=O)NC(=S)Nc1ccccc1
inactive: dose: 12.5 mg/kg/injection, schedule: Q04DX003 (ip), vehicle: Klucel (hydroxypropylcellulose) (HPC) 95 % of control | dose: 25.0 mg/kg/injection, schedule: Q04DX003 (ip), vehicle: Klucel (hydroxypropylcellulose) (HPC) 117 % of control | [6] 101 % of control

O=S(=O)(O)CCC(CO)(CO)CO
inactive: dose: 100.0 mg/kg/injection, schedule: Q01DX009 (ip), vehicle: saline 98 % of control | dose: 100.0 mg/kg/injection, schedule: Q04DX003 (ip), vehicle: saline 101 % of control | dose: 200.0 mg/kg/injection, schedule: Q01DX009 (ip), vehicle: saline 102 % of control | dose: 200.0 mg/kg/injection, schedule: Q04DX003 (ip), vehicle: saline 101 % of control | dose: 400.0 mg/kg/injection, schedule: Q01DX009 (ip), vehicle: saline 101 % of control | dose: 400.0 mg/kg/injection, schedule: Q04DX003 (ip), vehicle: saline 97 % of control

C=CCN(Cc1cnc2nc(N)nc(N)c2n1)c1ccc(C(=O)NC(CCC(=O)O)C(=O)O)cc1 (configuration not stated)
inactive: dose: 1.5 mg/kg/injection, schedule: Q01DX009 (ip), vehicle: sodium bicarbonate 108 % of control | dose: 3.0 mg/kg/injection, schedule: Q01DX009 (ip), vehicle: sodium bicarbonate 116 % of control | dose: 6.0 mg/kg/injection, schedule: Q01DX009 (ip), vehicle: sodium bicarbonate 118 % of control

CC1C/C(=N/NC(=O)OC(C)(C)C)CC(C)(C)C1 (configuration not stated)
inactive: dose: 100.0 mg/kg/injection, schedule: Q01DX009 (ip), vehicle: gum acacia 96 % of control | dose: 200.0 mg/kg/injection, schedule: Q01DX009 (ip), vehicle: gum acacia 89 % of control | dose: 400.0 mg/kg/injection, schedule: Q01DX009 (ip), vehicle: gum acacia 87 % of control

CNc1ncccn1
inactive: dose: 50.0 mg/kg/injection, schedule: Q01DX001 (ip), vehicle: saline 109 % of control | [1] 103 % of control | [2] 107 % of control | dose: 400.0 mg/kg/injection, schedule: Q01DX001 (ip), vehicle: saline 107 % of control

O=C1C(c2ccccc2)=C(c2ccccc2)C2(c3ccccc3)CN=NC12c1ccccc1 (configuration not stated)
inactive: [3] 90 % of control | [4] 94 % of control | [5] 92 % of control

CC(C)=CCC1(CC=C(C)C)C(=O)N(c2ccccc2)N(c2ccccc2)C1=O
inactive: dose: 50.0 mg/kg/injection, schedule: Q04DX002 (ip), vehicle: Klucel (hydroxypropylcellulose) (HPC) 93 % of control | dose: 100.0 mg/kg/injection, schedule: Q01DX009 (ip), vehicle: Klucel (hydroxypropylcellulose) (HPC) 93 % of control | dose: 100.0 mg/kg/injection, schedule: Q04DX002 (ip), vehicle: Klucel (hydroxypropylcellulose) (HPC) 101 % of control | dose: 200.0 mg/kg/injection, schedule: Q01DX009 (ip), vehicle: Klucel (hydroxypropylcellulose) (HPC) 98 % of control | dose: 200.0 mg/kg/injection, schedule: Q04DX002 (ip), vehicle: Klucel (hydroxypropylcellulose) (HPC) 97 % of control | dose: 400.0 mg/kg/injection, schedule: Q01DX009 (ip), vehicle: Klucel (hydroxypropylcellulose) (HPC) 90 % of control

CCCC(C)C(=O)Nc1cccc(OC(=O)N(C)C)c1 (configuration not stated)
inactive: [7] 95 % of control | [8] 96 % of control | [9] 93 % of control

O=c1[nH]c(Cl)nc2c(Cl)c(C(Cl)(Cl)Cl)nn12
inactive: dose: 100.0 mg/kg/injection, schedule: Q01DX009 (ip), vehicle: saline with Tween-80 95 % of control | [7] 101 % of control | dose: 200.0 mg/kg/injection, schedule: Q01DX009 (ip), vehicle: saline with Tween-80 93 % of control | [8] 94 % of control | [9] 92 % of control

CC(=O)N(C1=CC(=O)c2ccccc2C1=O)c1ccc(Cl)cc1
inactive: dose: 75.0 mg/kg/injection, schedule: Q01DX001 (ip), vehicle: carboxymethylcellulose (CMC) 98 % of control | dose: 150.0 mg/kg/injection, schedule: Q01DX001 (ip), vehicle: carboxymethylcellulose (CMC) 95 % of control | dose: 300.0 mg/kg/injection, schedule: Q01DX001 (ip), vehicle: carboxymethylcellulose (CMC) 97 % of control

COB1OB(OC)OB(OC)O1
inactive: dose: 500.0 mg/kg/injection, schedule: Q01DX Z (ip), vehicle: other 94 % of control | dose: 750.0 mg/kg/injection, schedule: Q01DX Z (ip), vehicle: other 104 % of control | dose: 1000.0 mg/kg/injection, schedule: Q01DX001 (ip), vehicle: carboxymethylcellulose (CMC) 109 % of control | dose: 1000.0 mg/kg/injection, schedule: Q01DX Z (ip), vehicle: other 107 % of control | dose: 1500.0 mg/kg/injection, schedule: Q01DX Z (ip), vehicle: other 118 % of control | dose: 2000.0 mg/kg/injection, schedule: Q01DX001 (ip), vehicle: carboxymethylcellulose (CMC) 113 % of control | dose: 3000.0 mg/kg/injection, schedule: Q01DX001 (ip), vehicle: carboxymethylcellulose (CMC) 113 % of control

CCCCCOC(=O)C1(C)OC1c1ccccc1 (configuration not stated)
inactive: dose: 100.0 mg/kg/injection, schedule: Q04DX002 (ip), vehicle: saline 108 % of control | dose: 200.0 mg/kg/injection, schedule: Q04DX002 (ip), vehicle: saline 93 % of control | dose: 400.0 mg/kg/injection, schedule: Q04DX002 (ip), vehicle: saline 93 % of control

CCCCCCC(C)O[Si](C)OCC (configuration not stated)
inactive: [7] 95 % of control | [8] 101 % of control | [9] 96 % of control

CC1=C2CC(C)(C)/C=C\C(=O)/C(C)=C\C3=C[C@H](C)C[C@]3(O2)C1=O
inactive: dose: 11.0 mg/kg/injection, schedule: Q01DX009 (ip), vehicle: saline 112 % of control | dose: 16.0 mg/kg/injection, schedule: Q01DX009 (ip), vehicle: saline 106 % of control | dose: 24.0 mg/kg/injection, schedule: Q01DX009 (ip), vehicle: saline 116 % of control

CSc1nc(N)nc2nc(C)cc(C)c12
inactive: dose: 100.0 mg/kg/injection, schedule: Q01DX Z (ip), vehicle: methylcellulose (MC) 110 % of control

CCCCNC(=O)NS(=O)(=O)c1ccc(CCl)cc1
inactive: [6] 98 % of control | [3] 102 % of control | [4] 100 % of control
